US9062027B2, “Carboxamide compounds and their use as calpain inhibitors V” (AbbVie Deutschland GmbH & Co. KG, priority 2010, dated 2015)

Key:
calpain-I = biological target: T1, calpain-I (Homo sapiens, UniProt P07384); assay: Calpain I enzyme inhibition in vitro (kinetic fluorescence assay); format: biochemical; settings: apparent Ki from IC50 by Cheng-Prussoff; calpain-I from human erythrocytes, pH 7.3
T1 construct: calpain-I—isolated from human erythrocytes; purchased Calbiochem 208713; host or cells: human erythrocytes (native tissue isolate)
T1 sequence (P07384 1-714): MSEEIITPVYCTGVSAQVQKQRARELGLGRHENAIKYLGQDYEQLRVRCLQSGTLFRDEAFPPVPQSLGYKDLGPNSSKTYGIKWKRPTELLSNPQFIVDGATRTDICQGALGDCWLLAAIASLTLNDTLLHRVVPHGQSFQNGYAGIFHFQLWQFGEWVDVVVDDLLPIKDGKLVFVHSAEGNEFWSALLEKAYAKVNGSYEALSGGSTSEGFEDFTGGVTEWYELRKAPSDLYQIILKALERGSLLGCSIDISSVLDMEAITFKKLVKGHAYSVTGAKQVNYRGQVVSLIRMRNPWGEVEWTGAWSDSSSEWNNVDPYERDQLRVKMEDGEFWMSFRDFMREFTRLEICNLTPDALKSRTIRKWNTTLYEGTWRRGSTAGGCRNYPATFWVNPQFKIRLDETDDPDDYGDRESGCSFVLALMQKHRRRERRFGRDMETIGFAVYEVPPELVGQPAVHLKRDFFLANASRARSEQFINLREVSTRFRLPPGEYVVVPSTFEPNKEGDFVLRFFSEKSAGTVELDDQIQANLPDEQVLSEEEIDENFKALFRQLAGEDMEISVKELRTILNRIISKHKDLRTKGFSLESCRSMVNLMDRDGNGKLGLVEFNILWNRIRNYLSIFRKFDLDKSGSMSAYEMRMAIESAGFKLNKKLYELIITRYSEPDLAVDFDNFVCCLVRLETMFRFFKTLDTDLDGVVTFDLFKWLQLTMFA
T1 sequence (P04632 1-268 partner): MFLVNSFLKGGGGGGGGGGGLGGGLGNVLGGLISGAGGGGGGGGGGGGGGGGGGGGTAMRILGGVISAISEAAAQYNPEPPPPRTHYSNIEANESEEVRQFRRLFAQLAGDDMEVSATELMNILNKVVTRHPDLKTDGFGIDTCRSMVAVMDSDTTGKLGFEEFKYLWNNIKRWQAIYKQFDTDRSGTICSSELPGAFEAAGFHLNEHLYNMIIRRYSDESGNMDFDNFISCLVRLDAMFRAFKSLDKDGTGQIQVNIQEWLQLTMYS
Procedure: Testing for blockade of the corresponding enzymic activities was carried out by means of kinetic fluorescence assays (excitation 390 nm, emission 460 nm).
Apparent Ki values were calculated from the experimentally determined IC50 values by the Cheng-Prussoff relation assuming a reversible competitive enzyme inhibition.
20 nM calpain-I—isolated from human erythrocytes (Calbiochem #208713), 100 μM Suc-Leu-Tyr-AMC (Bachem #I-1355) as substrate in buffer with 62 mM imidazole, 0.3 mM CaCl2, 0.10% CHAPS, 0.05% BSA, 1 mM DTT at pH 7.3 and room temperature.

[1] = In-vivo pharmacokinetics and metabolite to parent ratio in plasma of cynomolgus monkeys; settings: cynomolgus monkey, female cynomolgus monkeys, 3 mg/kg oral versus 1 mg/kg intravenous
Procedure: The tested compounds were prepared as a solution for either intravenous or oral administration to groups of female cynomolgus monkeys. For intravenous dosing, the compounds were prepared in a 10% DMSO/PEG-400 vehicle at a concentration of 2 mg/ml. For oral dosing, the compounds were prepared in a lipid based vehicle at a concentration of 3 mg/ml. Groups of three monkeys received either a 1 mg/kg (0.5 ml/kg) intravenous dose or a 3 mg/kg (1 ml/kg) oral dose. The intravenous dose was administered as a slow bolus in a saphenous vein; the oral dose was administered by gastric intubation and was followed by ˜5 ml water. […] The samples were reconstituted with an aliquot of mobile phase, followed by quantification by HPLC-MS/MS. Standard curves for both parent and the selected metabolites were prepared from authentic standards in blank monkey plasma; standards were analyzed simultaneously with the samples. The plasma concentration of each sample was calculated by least squares linear regression analysis of the peak area ratio (parent or metabolite/internal standard) of the spiked plasma standards versus concentration.
Peak plasma concentrations (Cmax) and the time to peak plasma concentration (Tmax) were read directly from the plasma concentration data for each monkey. […] The apparent total plasma clearance (CLp) was calculated by dividing the administered dose by the AUC0-inf. […]

Ki (calpain-I) [nM]	Structure (SMILES)	also measured
400 to 800	O=C(NC1CC1)C(=O)C(Cc1ccccc1)NC(=O)c1cccnc1-n1cc2ccccc2n1 (stereo not drawn) [Example 1, N-[4-(Cyclopropylamino)-3,4-dioxo-1-phenylbutan-2-yl]-2-(2H-indazol-2-yl)nicotinamide]	
	CCNC(=O)C(=O)C(Cc1ccccc1)NC(=O)c1cccnc1-n1cc2ccccc2n1 (stereo not drawn) [Example 2, N-[4-(Ethylamino)-3,4-dioxo-1-phenyl-2-butanyl]-2-(2H-indazol-2-yl)nicotinamide]	Calpain activity (Ki(calpain)) (calpain-I): ∘
< 250	CONC(=O)C(=O)C(Cc1ccccc1)NC(=O)c1cccnc1-n1cc2ccccc2n1 (stereo not drawn) [Example 3, 2-(2H-Indazol-2-yl)-N-[4-(methoxyamino)-3,4-dioxo-1-phenyl-2-butanyl]nicotinamide]	
< 250	CCONC(=O)C(=O)C(Cc1ccccc1)NC(=O)c1cccnc1-n1cc2ccccc2n1 (stereo not drawn) [Example 4, N-[4-(Ethoxyamino)-3,4-dioxo-1-phenyl-2-butanyl]-2-(2H-indazol-2-yl)nicotinamide]	
400 to 800	O=C(NC1CC1)C(=O)C(Cc1ccccc1)NC(=O)c1cccnc1-n1cc2c(n1)CCCC2 (stereo not drawn) [Example 5, N-[4-(Cyclopropylamino)-3,4-dioxo-1-phenyl-2-butanyl]-2-(4,5,6,7-tetrahydro-2H-indazol-2-yl)nicotinamide]	
< 250	CONC(=O)C(=O)C(Cc1ccccc1)NC(=O)c1cccnc1-n1cc2cc(F)ccc2n1 (stereo not drawn) [Example 7, 2-(5-Fluoro-2H-indazol-2-yl)-N-[4-(methoxyamino)-3,4-dioxo-1-phenyl-2-butanyl]-3-pyridinecarboxamide]	
250 to 400	CONC(=O)C(=O)C(Cc1ccccc1)NC(=O)c1cccnc1-n1cc2ccc(F)cc2n1 (stereo not drawn) [Example 8, 2-(6-Fluoro-2H-indazol-2-yl)-N-[4-(methoxyamino)-3,4-dioxo-1-phenyl-2-butanyl]-3-pyridinecarboxamide]	
< 250	CONC(=O)C(=O)C(Cc1ccccc1)NC(=O)c1cccnc1-n1cc2ccc(C(F)(F)F)cc2n1 (stereo not drawn) [Example 9, N-[4-(Methoxyamino)-3,4-dioxo-1-phenyl-2-butanyl]-2-[6-(trifluoromethyl)-2H-indazol-2-yl]-3-pyridinecarboxamide]	
	NC(=O)C(=O)C(Cc1ccccc1)NC(=O)c1cccnc1-n1cc2ccccc2n1 (stereo not drawn) [comp. ex., N-(3-Amino-1-benzyl-2,3-dioxopropyl)-2-(2H-indazol-2-yl)nicotinamide]	bioavailability [1]: 3%
